From a melting point compilation (Tetko et al.)

SMILES	melting point [°C]
Cc1nn(C(C)(C)C)c2nc(C3CC3)cc(C(=O)O)c12	172 to 174
NNC(=O)C(=O)NC1CC1	181 to 183
CC1CCCN(Cc2csc(N)n2)C1 (stereo not drawn)	136 to 138
NC(=O)c1c(N)sc2c1-c1ccccc1CCC2	145 to 147
N#Cc1ccc([N+](=O)[O-])cc1F	69 to 71
CC(C)(C)CCCC(=O)O	36 to 38
Cc1cc([N+](=O)[O-])cc(S(=O)(=O)Cl)c1F	73 to 75
CCN(CC)c1ccc(-c2nnc(S)o2)cc1	163 to 165
Nc1ccc(C(=O)OC2CCCC2)cc1	55 to 57
Nc1nnc(C=Cc2ccco2)s1	218 to 220
OCc1c(Cl)nc(Cl)n1-c1ccccc1	139 to 141
O=S1(=O)CCCN1c1cccc(Br)c1	74 to 76
CC(=O)N1CCC(O)C1 (stereo not drawn)	77 to 79
Cc1cnn([N+](=O)[O-])c1	41 to 43
Cc1cc(Cl)cc2nc(Cl)oc12	59 to 61
Cc1nc(S)c2ccccc2n1	211 to 213
NC(=O)C1CNCCO1 (stereo not drawn)	158 to 160
Cc1nn(C)c(C)c1CC(N)=O	175 to 177

SMILES	melting point [°C]
O=CN1CCN(S(=O)(=O)Cl)CC1	103 to 105
NC(=O)CCCO	42 to 44
CSc1nc(CCl)cc(=O)[nH]1	176 to 178
CN(CCO)CC(=O)O	136 to 138
CC(C)(C)OC(=O)N1CCN(C(=O)C2CCCN2)CC1 (stereo not drawn)	219 to 221
N#Cc1cc(Br)cc(S(N)(=O)=O)c1	199 to 201
O=c1ccn(C2CC2)c(S)n1	238 to 240
Nc1ccn(-c2ccc(Cl)cc2Cl)n1	114 to 116
CCOC(=O)c1c(C)noc1N	133 to 135
O=C(c1cccnc1Cl)N1CCCCC1	67 to 69
Cc1ccnn1-c1ccccn1	34 to 36
O=C(O)C1CCCCC1C(=O)NC1CCS(=O)(=O)C1 (stereo not drawn)	137 to 139
NC(=O)CNCc1ccc(OCc2ccccc2)cc1	140 to 142
COc1cc(C(N)=S)ccn1	117 to 119
Cc1nn(CCO)c(N)c1C	129 to 131
Cn1c2ccccc2n2c(S)nnc12	270 to 272
CCc1nnn[nH]1	93 to 95

Continued, values first:

melting point [°C]	SMILES
169 to 171	O=C(O)COc1cccc(N2CCCC2=O)c1
149 to 151	NC(=O)Nc1cccc(F)c1C(=O)O
64 to 66	CC(Oc1ccccc1F)C(=O)NN (stereo not drawn)
144 to 146	COC(=O)Cn1cnc2cc(F)ccc2c1=O
96 to 98	CNc1ccccc1S(C)(=O)=O
161 to 163	NC(=O)CCC(C(=O)O)N1C(=O)c2ccccc2C1=O (stereo not drawn)
49 to 53	CS(=O)(=O)c1ccccc1F
69 to 71	COC(=O)CCCOc1ccc(N)c2ccccc12
45 to 46	COc1cc(C(=O)CBr)ccc1OC(F)F
173 to 175	O=C(O)CCC1NC(=O)N(c2ccc(Cl)c(Cl)c2)C1=O (stereo not drawn)
196 to 198	Cc1oc(-c2cccs2)nc1C(=O)O
48 to 50	CC(=O)c1cncc(F)c1
354 to 356	O=C(O)c1ccc(-c2noc(=O)[nH]2)cc1
249 to 251	Cc1sc(C(=O)O)cc1S(N)(=O)=O
55 to 57	CC(C(=O)O)c1ccc(Br)s1 (stereo not drawn)
130 to 132	CCOC(=O)C(=O)Cc1ccc2ccccc2n1
128 to 130	CC(CS(=O)(=O)c1ccc(F)cc1)C(=O)O (stereo not drawn)
99 to 101	Cc1cncc(CCC(=O)O)c1
107 to 109	COC(=O)c1cnc(-c2ccccc2)s1

melting point [°C]	SMILES
182 to 184	Cc1c(N)cccc1N1C(=O)CCC1=O
220 to 223	O=C(O)c1ccc2c3c(cccc13)CC2
55 to 57	Cc1cccc(NC(=O)CN2CCNCC2)c1C
182 to 184	CC1CCC(C(=O)O)C2C(=O)N(c3ccccc3)C(=O)C12 (stereo not drawn)
200 to 202	NS(=O)(=O)Cc1ccc([N+](=O)[O-])cc1Br
111 to 113	CC(N)CCc1ccc(O)cc1 (stereo not drawn)
140 to 142	O=C(O)c1ccc(Br)nn1
158 to 160	CC(C)NS(=O)(=O)Cc1ccc(C#N)cc1
235 to 239	Cc1cccc(C(=O)NC(CCS(C)(=O)=O)C(=O)O)c1 (stereo not drawn)
64 to 66	Cc1cc(C#N)ccc1S(=O)(=O)Cl
257 to 259	Nc1c(C(=O)O)nnc2ccccc12
73 to 75	COC(=O)c1cc(F)cc(S(=O)(=O)Cl)c1Br
107 to 111	O=C(O)c1c(F)ccc(S(=O)(=O)Cl)c1F
262 to 264	COc1ccc(C(=O)O)cc1S(=O)(=O)N1CC(C)CC(C)C1 (stereo not drawn)
163 to 165	NC(=O)c1cccc(O)c1
147 to 149	CNC(=O)Nc1ccc(N)cc1
58 to 60	Cc1ccsc1C1CC1C(=O)O (stereo not drawn)
80 to 82	OCc1noc(-c2ccccc2)n1
136 to 138	Nc1ccc(S(=O)(=O)NCc2ccc(F)cc2)cc1
